Data published in PubChem BioAssay (NCI).
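A five-concentration, 48-hour dose response in 96-well plates underlies each endpoint, interpolated linearly between surrounding concentrations. GI50 = concentration required for 50% inhibition of growth. TGI is the concentration that stops growth completely.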

Tests used:
Experiment in all cases: inhibition of tumour cell growth, NCI panel, 48 h
[1] = test system: A498 renal
[2] = test system: SK-MEL-2 melanoma
[3] = test system: CCRF-CEM leukemia
[4] = test system: TK-10 renal
[5] = test system: RPMI-8226 leukemia
[6] = test system: A549 NSCLC
[7] = test system: SK-OV-3 ovarian
[8] = test system: HCT-116 colon
[9] = test system: NCI-H23 lung
[10] = test system: UACC-257 melanoma
[11] = test system: 786-0 renal
[12] = test system: NCI-H460 lung
[13] = test system: NCI-H522 lung
[14] = test system: HS 578T breast
[15] = test system: U251 CNS
[16] = test system: SK-MEL-28 melanoma
[17] = test system: OVCAR-4 ovarian
[18] = test system: SF-295 CNS
[19] = test system: EKVX NSCLC
[20] = test system: SR leukemia
[21] = test system: UO-31 renal
[22] = test system: MALME-3M melanoma
[23] = test system: COLO 205 colon
[24] = test system: LOX IMVI melanoma
[25] = test system: SK-MEL-5 melanoma
[26] = test system: OVCAR-8 ovarian
[27] = test system: SF-539 CNS
[28] = test system: HCT-15 colon
[29] = test system: IGROV1 ovarian
[30] = test system: MCF7 breast
[31] = test system: HCC-2998 colon
[32] = test system: T-47D breast
[33] = test system: HT29 colon
[34] = test system: NCI/ADR-RES ovarian
[35] = test system: MDA-MB-435
[36] = test system: K-562 leukemia
[37] = test system: CAKI-1 renal
[38] = test system: HOP-92 NSCLC
[39] = test system: BT-549 breast
[40] = test system: ACHN renal
[41] = test system: HL-60(TB) leukemia
[42] = test system: MOLT-4 leukemia
[43] = test system: OVCAR-3 ovarian
[44] = test system: HOP-62 NSCLC
[45] = test system: SF-268 CNS
[46] = test system: SNB-19 CNS
[47] = test system: PC-3 prostate
[48] = test system: MDA-MB-468 breast
[49] = test system: SNB-75 CNS
[50] = test system: SW-620 colon
[51] = test system: DU-145 prostate
[52] = test system: UACC-62 melanoma
[53] = test system: KM12 colon
[54] = test system: M14 melanoma
[55] = test system: SN12C renal
[56] = test system: NCI-H226 lung
[57] = test system: MDA-MB-231 breast
[58] = test system: RXF 393 renal
[59] = test system: OVCAR-5 ovarian

For `C=C1CCC2C3(C)COC(c4ccccc4F)OC3CCC2(C)C1CC(O)C1=CCOC1=O` (stereo not drawn), the GI50 [1] was 23.5 µM, the TGI [1] was 77.2 µM and the GI50 [2] was 14.6 µM. The TGI [2] was 29.1 µM, the GI50 [3] was 3.08 µM and the TGI [3] was greater than 100 µM. For the same compound, the GI50 [4] was 34.6 µM, the TGI [4] was greater than 100 µM and the GI50 [5] was 6.73 µM. For the same compound, the TGI [5] was greater than 100 µM, the GI50 [6] was 24.4 µM and the TGI [6] was greater than 100 µM. The GI50 [7] was 37.1 µM, the TGI [7] was greater than 100 µM and the GI50 [8] was 4.3 µM. For the same compound, the TGI [8] was 17.2 µM, the GI50 [9] was 23.6 µM and the TGI [9] was 73.9 µM. For the same compound, the GI50 [10] was 20 µM, the TGI [10] was greater than 100 µM and the GI50 [11] was 16.7 µM. The TGI [11] was 32.8 µM, the GI50 [12] was 25.4 µM and the TGI [12] was greater than 100 µM. It also gave a GI50 [13] of 6 µM, a TGI [13] of 21.4 µM and a GI50 [14] of 28.1 µM. For the same compound, the TGI [14] was greater than 100 µM, the GI50 [15] was 11.9 µM and the TGI [15] was 24.6 µM. The GI50 [16] was 26.4 µM, the TGI [16] was greater than 100 µM and the GI50 [17] was 13.8 µM. The TGI [17] was 53.9 µM, the GI50 [18] was 15.9 µM and the TGI [18] was 44.9 µM. It also gave a GI50 [19] of 87.7 µM, a TGI [19] greater than 100 µM and a GI50 [20] of 57.1 µM. It also gave a TGI [20] greater than 100 µM, a GI50 [21] of 13.4 µM and a TGI [21] of 54.1 µM. The GI50 [22] was 22.5 µM, the TGI [22] was 68.4 µM and the GI50 [23] was 19.3 µM. It also gave a TGI [23] of 55.9 µM, a GI50 [24] of 11.1 µM and a TGI [24] of 23.1 µM. For the same compound, the GI50 [25] was 17.1 µM, the TGI [25] was 39.4 µM and the GI50 [26] was 4.86 µM. For the same compound, the TGI [26] was 19.2 µM, the GI50 [27] was 14.9 µM and the TGI [27] was 28.3 µM. For the same compound, the GI50 [28] was 9.51 µM, the TGI [28] was 33.5 µM and the GI50 [29] was 24.2 µM. The TGI [29] was 69.1 µM, the GI50 [30] was 3.48 µM and the TGI [30] was 20.2 µM. The GI50 [31] was 25.3 µM, the TGI [31] was greater than 100 µM and the GI50 [32] was 10.7 µM. It also gave a TGI [32] greater than 100 µM, a GI50 [33] of 13.3 µM and a TGI [33] of 52.6 µM. The GI50 [34] was 8.93 µM, the TGI [34] was 25.3 µM and the GI50 [35] was 12.6 µM. For the same compound, the TGI [35] was 46.9 µM, the GI50 [36] was 5.7 µM and the TGI [36] was greater than 100 µM. For the same compound, the GI50 [37] was 25 µM, the TGI [37] was greater than 100 µM and the GI50 [38] was 18.1 µM. The TGI [38] was 45.4 µM, the GI50 [39] was 5.9 µM and the TGI [39] was 22 µM. For the same compound, the GI50 [40] was 13.4 µM, the TGI [40] was 26.2 µM and the GI50 [41] was 5.66 µM. The TGI [41] was greater than 100 µM, the GI50 [42] was 40.8 µM and the TGI [42] was greater than 100 µM. It also gave a GI50 [43] of 9.68 µM, a TGI [43] of 26.6 µM and a GI50 [44] of 23 µM. The TGI [44] was 42.4 µM, the GI50 [45] was 28.4 µM and the TGI [45] was greater than 100 µM. It also gave a GI50 [46] of 33.1 µM, a TGI [46] greater than 100 µM and a GI50 [47] of 18.2 µM. It also gave a TGI [47] greater than 100 µM, a GI50 [48] of 4.71 µM and a TGI [48] of 19.1 µM. It also gave a GI50 [49] of 6.89 µM, a TGI [49] of 26.1 µM and a GI50 [50] of 2.1 µM. It also gave a TGI [50] of 11.4 µM, a GI50 [51] of 28.9 µM and a TGI [51] greater than 100 µM. The GI50 [52] was 15.9 µM, the TGI [52] was 46 µM and the GI50 [53] was 17.7 µM. It also gave a TGI [53] greater than 100 µM, a GI50 [54] of 30 µM and a TGI [54] greater than 100 µM. The GI50 [55] was 6.14 µM, the TGI [55] was 92.5 µM and the GI50 [56] was 5.74 µM. For the same compound, the TGI [56] was 22.7 µM, the GI50 [57] was 16.9 µM and the TGI [57] was 35.6 µM. The GI50 [58] was 14.1 µM, the TGI [58] was 30.9 µM and the GI50 [59] was 16.3 µM. For the same compound, the TGI [59] was 50.8 µM.
